{
  "source": "paper PMC3989234",
  "about": "“Introduction of Aromatic Ring-Containing Substituents in Cyclic Nucleotides Is Associated with Inhibition of Toxin Uptake by the Hepatocyte Transporters OATP 1B1 and 1B3” (PLoS ONE, 2014)",
  "molecules": {"B1": {"name": "OATP1B1 (Homo sapiens) (protein)", "chain": "MDQNQHLNKTAEAQPSENKKTRYCNGLKMFLAALSLSFIAKTLGAIIMKSSIIHIERRFEISSSLVGFIDGSFEIGNLLVIVFVSYFGSKLHRPKLIGIGCFIMGIGGVLTALPHFFMGYYRYSKETNINSSENSTSTLSTCLINQILSLNRASPEIVGKGCLKESGSYMWIYVFMGNMLRGIGETPIVPLGLSYIDDFAKEGHSSLYLGILNAIAMIGPIIGFTLGSLFSKMYVDIGYVDLSTIRITPTDSRWVGAWWLNFLVSGLFSIISSIPFFFLPQTPNKPQKERKASLSLHVLETNDEKDQTANLTNQGKNITKNVTGFFQSFKSILTNPLYVMFVLLTLLQVSSYIGAFTYVFKYVEQQYGQPSSKANILLGVITIPIFASGMFLGGYIIKKFKLNTVGIAKFSCFTAVMSLSFYLLYFFILCENKSVAGLTMTYDGNNPVTSHRDVPLSYCNSDCNCDESQWEPVCGNNGITYISPCLAGCKSSSGNKKPIVFYNCSCLEVTGLQNRNYSAHLGECPRDDACTRKFYFFVAIQVLNLFFSALGGTSHVMLIVKIVQPELKSLALGFHSMVIRALGGILAPIYFGALIDTTCIKWSTNNCGTRGSCRTYNSTSFSRVYLGLSSMLRVSSLVLYIILIYAMKKKYQEKDINASENGSVMDEANLESLNKNKHFVPSAGADSETHC"}},
  "key": {"OATP1B3 [1]": {"target": "T1, OATP1B3 (Homo sapiens, UniProt Q9NPD5)", "T1 sequence (Q9NPD5 whole entry)": "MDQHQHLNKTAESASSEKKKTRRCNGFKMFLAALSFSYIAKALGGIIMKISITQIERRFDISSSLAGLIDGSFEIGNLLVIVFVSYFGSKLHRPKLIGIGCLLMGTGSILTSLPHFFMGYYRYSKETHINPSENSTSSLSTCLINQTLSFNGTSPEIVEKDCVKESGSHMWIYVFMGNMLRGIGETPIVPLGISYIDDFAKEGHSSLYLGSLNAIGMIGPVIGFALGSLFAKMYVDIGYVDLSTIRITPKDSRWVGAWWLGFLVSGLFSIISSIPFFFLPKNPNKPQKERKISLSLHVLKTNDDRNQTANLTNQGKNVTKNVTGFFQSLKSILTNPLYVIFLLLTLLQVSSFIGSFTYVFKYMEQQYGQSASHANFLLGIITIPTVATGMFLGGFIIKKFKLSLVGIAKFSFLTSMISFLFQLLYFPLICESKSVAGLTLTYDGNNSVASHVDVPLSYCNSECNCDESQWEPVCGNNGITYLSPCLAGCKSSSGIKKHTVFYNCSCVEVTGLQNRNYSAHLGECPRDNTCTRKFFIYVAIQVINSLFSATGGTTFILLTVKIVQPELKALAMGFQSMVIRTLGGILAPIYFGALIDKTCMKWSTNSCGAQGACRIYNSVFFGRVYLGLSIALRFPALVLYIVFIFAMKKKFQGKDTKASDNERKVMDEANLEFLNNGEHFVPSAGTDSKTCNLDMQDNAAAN"}, "primary rat hepatocytes [2]": {"test_system": "primary rat hepatocytes", "settings": "50 µM"}, "primary rat hepatocytes [3]": {"test_system": "primary rat hepatocytes"}, "OATP1B1 [4]": {"target": "T2, OATP1B1 (Homo sapiens, UniProt Q9Y6L6)", "T2 sequence (Q9Y6L6 1-691)": "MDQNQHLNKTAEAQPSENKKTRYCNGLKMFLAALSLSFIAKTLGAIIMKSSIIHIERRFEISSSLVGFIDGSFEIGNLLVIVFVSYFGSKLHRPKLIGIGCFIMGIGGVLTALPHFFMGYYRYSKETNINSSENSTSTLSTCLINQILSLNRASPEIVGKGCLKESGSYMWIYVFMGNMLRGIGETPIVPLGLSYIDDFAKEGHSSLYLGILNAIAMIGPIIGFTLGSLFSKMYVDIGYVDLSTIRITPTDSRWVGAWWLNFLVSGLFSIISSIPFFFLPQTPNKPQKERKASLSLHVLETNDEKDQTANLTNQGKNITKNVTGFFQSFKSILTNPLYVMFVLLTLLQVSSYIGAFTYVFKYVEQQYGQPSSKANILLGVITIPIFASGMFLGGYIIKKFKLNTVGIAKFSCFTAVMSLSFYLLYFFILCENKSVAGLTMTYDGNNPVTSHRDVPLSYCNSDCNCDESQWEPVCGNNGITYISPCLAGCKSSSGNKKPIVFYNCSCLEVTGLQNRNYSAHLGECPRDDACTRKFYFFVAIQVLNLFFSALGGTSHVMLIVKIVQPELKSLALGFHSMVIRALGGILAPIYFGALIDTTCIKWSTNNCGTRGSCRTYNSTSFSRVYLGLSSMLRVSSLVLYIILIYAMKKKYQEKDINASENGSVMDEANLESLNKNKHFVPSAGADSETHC"}, "OATP1B1 [5]": {"target": "T2, OATP1B1", "assay": "Sodium fluorescein accumulation in OATP1B1-transfected HEK293T cells", "settings": "read-out: Ki for inhibition of sodium fluorescein accumulation, OATP1B1; competitive; inhibitor 10 min before, 3 min co-incubation; ± s.e. of the estimate; R2 0.79", "description": "(§1) Estimation of sodium fluorescein accumulation in OATP1B1/1B3 transfected cells was as described by [33], except that the cells were seeded in 24-well tissue culture plates at a density of 200 000 cells/well. Inhibitors were added 10 min prior to addition of sodium fluorescein, and the cells were then co-incubated with inhibitor and substrate for three min before removal of medium and washing.\n(§2) The data for uptake of fluorescein into HEK293T cells transfected with OATP1B1 or OATP1B3 in the absence or presence of inhibitor were fitted in SigmaPlot, using Michaelis Menten kinetics with competitive inhibition. Vmax and Km values obtained in absence of inhibitor were used to fit the Ki value for uptake in the presence of inhibitor."}, "OATP1B3 [6]": {"target": "T1, OATP1B3", "settings": "read-out: Ki for inhibition of sodium fluorescein accumulation, OATP1B3; competitive; inhibitor 10 min before, 3 min co-incubation; ± s.e. of the estimate; R2 0.91", "description": "as §1, §2"}, "primary rat hepatocytes [7]": {"test_system": "primary rat hepatocytes", "remark": "listed apart in the source"}, "OATP1B3 [8]": {"target": "T1, OATP1B3", "assay": "in vitro", "description": "as §1, §2"}, "OATP1B3 [9]": {"target": "T1, OATP1B3", "settings": "cited from earlier work"}, "OATP1B1 [10]": {"target": "T2, OATP1B1", "settings": "cited from earlier work"}, "[11]": {"substrate": "O=C1OC2(c3ccc(O)cc3Oc3cc(O)ccc32)c2ccccc21", "assay": "cells, lysate or membranes", "settings": "other: ± s.e. of the estimate", "description": "as §1, §2"}},
  "note": "Where two headings read alike, the source gives them in different places.",
  "data": [
    {"molecule": "CO[C@@H]1[C@@H]2OP(=O)(O)OC[C@H]2O[C@H]1n1c(Sc2ccc(Cl)cc2)nc2c(N)ncnc21", "note": "[8-pCPT-2′-O-Me-cAMP, 8-(4-Chlorophenylthio)-2′-O-methyladenosine-3′, 5′-cyclic monophosphate]", "values": [
      {"measurement": "Effect on Nod-induced apoptosis / Nod transport, OATP1B3-transfected HEK293T cells", "setting": "OATP1B3 [1]", "result": "abolished"},
      {"measurement": "IC50", "setting": "OATP1B3 [1]", "result": 12.6, "unit": "µM"},
      {"measurement": "Ki", "setting": "OATP1B3 [1]", "result": 3.38, "unit": "µM"},
      {"measurement": "Effect on [14C]-glycocholic acid accumulation in hepatocytes", "setting": "primary rat hepatocytes [2]", "result": "almost completely inhibited"},
      {"measurement": "Effect on [3H]-Nod accumulation in hepatocytes", "setting": "primary rat hepatocytes [3]", "result": "almost completely inhibited"},
      {"measurement": "Effect on Nod-induced apoptosis / Nod transport, OATP1B1-transfected HEK293T cells", "setting": "OATP1B1 [4]", "result": "abolished"},
      {"measurement": "IC50", "setting": "OATP1B1 [4]", "result": 46.4, "unit": "µM"},
      {"measurement": "Ki", "setting": "OATP1B1 [4]", "result": 15.5, "unit": "µM"},
      {"measurement": "Ki", "setting": "OATP1B1 [5]", "result": "46 ± 21", "unit": "µM"},
      {"measurement": "Ki", "setting": "OATP1B3 [6]", "result": "75 ± 22", "unit": "µM"},
      {"measurement": "Effect on Nod-induced hepatocyte apoptosis (Fig. 1A)", "setting": "primary rat hepatocytes [7]", "result": "inhibited completely apoptotic morphology"},
      {"measurement": "Effect on Nod-induced hepatocyte apoptosis (Fig. 2A)", "setting": "primary rat hepatocytes [7]", "result": "clear inhibition"}
    ]},
    {"molecule": "O=C1OC2(c3ccc(O)cc3Oc3cc(O)ccc32)c2ccccc21", "note": "[fluorescein, sodium fluorescein]", "values": [
      {"measurement": "Km", "setting": "OATP1B3 [8]", "result": "285 ± 134", "unit": "µM"}
    ]},
    {"molecule": "Nostocyclopeptide-M1", "values": [
      {"measurement": "Potency as OATP1B3 inhibitor compared with the cAMP analogs", "setting": "OATP1B3 [9]", "result": "more potent inhibitor"},
      {"measurement": "Potency as OATP1B1 inhibitor compared with the cAMP analogs", "setting": "OATP1B1 [10]", "result": "more potent inhibitor"}
    ]},
    {"molecule": "B1", "values": [
      {"measurement": "Km", "setting": "[11]", "result": "402 ± 140", "unit": "µM"}
    ]}
  ]
}
